Results published in patent US10633542B2, “Azacyanine dyes and use thereof” (Ecole Polytechnique Fédérale de Lausanne (EPFL), priority 2018, dated 2020).
“And” between values parts separate entries of the source, which are not always exact repeats. Equal values may be shown once.

Experiments:
[1] = tested on: sliced skin tissue of a nude mouse (dry-ice treated); assay: Ex vivo cell death assay, cryogenic tissue damage; conditions: 1 uM, 5 uM, 10 uM, 10 min at room temperature
Experimental: Ex vivo cell death assay for compounds, VI and XIV were studied using a method of cryogenic tissue damage. Briefly, a bar of a dry ice was applied to sliced skin tissue of a nude mouse recently sacrificed in a petri dish for a period of 60 sec. Subsequently, the skin tissue samples were incubated with different concentrations of dye VI and XIV (1 uM, 5 uM, and 10 uM) for 10 min at room temperature.

[2] = cited from earlier work
[3] = in methanol, calibration standard; cited from earlier work
[4] = Shortwave infrared / NIR-II imaging with SWIR camera system; type: physicochemical; conditions: commercial SWIR camera system
Text: It was already shown that in the NIR-II region there is less absorption and […] enabling 2 times deeper imaging with much higher resolution respectively. […] The results are shown on FIG. 24. The camera used for obtaining the data has the following specs: “Princeton NIRvana detector, IsoPlane SCT320 spectrometer, Nikon inverted microscope, 658 nm, 785 nm and Xenon lamp/monochromator illumination sources” The other derivatives of aza-cyanine analogs covered in the current invention are currently being tested to find the optimal SWIR imaging dye.

necrotic tissue = assay: Necrosis imaging in vivo after cardiotoxin injection; design: species or system mouse
Experimental: Cardiotoxin (10 μM in 50 μL of PBS) was injected into the right thigh of the mouse and 50 μL of PBS was injected into the left thigh. 24 hours post-injection of toxin, Compound VIII ([…] in 100 μL PBS) was injected intravenously into the tail of the mouse. […] The results are shown below in FIG. 20-22. The brightnesses of the images are not on scale with one another. The quantification is shown on the same graph. Significant signal over-background ratios resulting from accumulation of the dye in necrosis areas observed as early as 10 min post-injection of the Compound VIII making it ideal for clinical translation.

A431 cells = assay: Cell uptake in live cells; type: cell-based; conditions: for Average values: average of wells; for Avg Radiant Efficiency: single wells
Experimental: Therefore, we performed such experiments in live cells with Compound VIII compound. […] The following procedure was used:
Cells were grown in 96 well plates to confluent level. Media was removed, cells washed with PBS, incubated for a set time (5, 15, or 30 minutes) at varying concentrations of the dye (5 μM, 10 μM, and 25 μM) in PBS. Dye was removed, cells washed twice with PBS, then PBS added for imaging.
The values for each well were consistent with that of the control group of wells that were not exposed to the dye in wells A1-A3. The bright well at F12 is a solution of Compound VIII at 5 μM in PBS to insure imaging of the dye is occurring.

SMILES: CC1(C)C2=CC=CN(CCCCCC(=O)O)C2=N/C1=C/C=C1\C[N+](C)(C)CC(/C=C/C2=Nc3c(ccc[n+]3CCCCCC(=O)O)C2(C)C)=C1Oc1ccc(S(=O)(=O)O)cc1.[Na+] [dye XIV]
- fluorescence at the site of focal dry-ice treatment [1]: strong accumulation of fluorescence

SMILES: CC1(C)C(/C=C/C=C/C=C/C=C2\N(CCCCS(=O)(=O)O)c3ccc4ccccc4c3C2(C)C)=[N+](CCCCS(=O)(=O)[O-])c2ccc3ccccc3c21 [ICG, Indocyanine Green]
- solubility in saline [2]: not readily soluble
- fluorescence quantum yield (QY) [3]: 7.8%

SMILES: CN1C=CC=C2C1=N/C(=C\C=C1/C[N+](C)(C)CC(/C=C/C3=Nc4c(ccc[n+]4C)C3(C)C)=C1Cl)C2(C)C.I [Compound VIII]
- absorption in the NIR-II region [4]: absorbs in the NIR-II region
- targeting of necrotic area in vivo (necrotic tissue; cardiotoxin in right thigh, dye 40 μmoles in 100 μL PBS intravenously 24 hours later): selectively targets the necrotic area
- clearance route (necrotic tissue; mouse, intravenous): clears through the kidneys instead of accumulating in the liver
- time post-injection at which significant signal over-background ratios are observed (necrotic tissue; mouse, intravenous): 10 min
- Average values (A431 cells; 5 μM, 5 minutes): 1.49E+07 [p/s/cm^2/sr]/[μW/cm^2]
- Avg Radiant Efficiency (A431 cells; 5 μM, 5 minutes): 1.64E+07 [p/s/cm^2/sr]/[μW/cm^2] and 1.47E+07 [p/s/cm^2/sr]/[μW/cm^2] and 1.36E+07 [p/s/cm^2/sr]/[μW/cm^2]
- Average values (A431 cells; 5 μM, 15 minutes): 1.24E+07 [p/s/cm^2/sr]/[μW/cm^2]
- Avg Radiant Efficiency (A431 cells; 5 μM, 15 minutes): 1.29E+07 [p/s/cm^2/sr]/[μW/cm^2] and 1.23E+07 [p/s/cm^2/sr]/[μW/cm^2] and 1.19E+07 [p/s/cm^2/sr]/[μW/cm^2]
- Average values (A431 cells; 5 μM, 30 minutes): 1.17E+07 [p/s/cm^2/sr]/[μW/cm^2]
- Avg Radiant Efficiency (A431 cells; 5 μM, 30 minutes): 1.18E+07 [p/s/cm^2/sr]/[μW/cm^2] and 1.16E+07 [p/s/cm^2/sr]/[μW/cm^2] and 1.17E+07 [p/s/cm^2/sr]/[μW/cm^2]
- Average values (A431 cells; 10 μM, 5 minutes): 1.39E+07 [p/s/cm^2/sr]/[μW/cm^2]
- Avg Radiant Efficiency (A431 cells; 10 μM, 5 minutes): 1.50E+07 [p/s/cm^2/sr]/[μW/cm^2] and 1.39E+07 [p/s/cm^2/sr]/[μW/cm^2] and 1.28E+07 [p/s/cm^2/sr]/[μW/cm^2]
- Average values (A431 cells; 10 μM, 15 minutes): 1.20E+07 [p/s/cm^2/sr]/[μW/cm^2]
- Avg Radiant Efficiency (A431 cells; 10 μM, 15 minutes): 1.24E+07 [p/s/cm^2/sr]/[μW/cm^2] and 1.18E+07 [p/s/cm^2/sr]/[μW/cm^2] and 1.17E+07 [p/s/cm^2/sr]/[μW/cm^2]
- Average values (A431 cells; 10 μM, 30 minutes): 1.15E+07 [p/s/cm^2/sr]/[μW/cm^2]
- Avg Radiant Efficiency (A431 cells; 10 μM, 30 minutes): 1.16E+07 [p/s/cm^2/sr]/[μW/cm^2] and 1.15E+07 [p/s/cm^2/sr]/[μW/cm^2] and 1.13E+07 [p/s/cm^2/sr]/[μW/cm^2]
- Average values (A431 cells; 25 μM, 5 minutes): 1.33E+07 [p/s/cm^2/sr]/[μW/cm^2]
- Avg Radiant Efficiency (A431 cells; 25 μM, 5 minutes): 1.39E+07 [p/s/cm^2/sr]/[μW/cm^2] and 1.34E+07 [p/s/cm^2/sr]/[μW/cm^2] and 1.27E+07 [p/s/cm^2/sr]/[μW/cm^2]
- Average values (A431 cells; 25 μM, 15 minutes): 1.20E+07 [p/s/cm^2/sr]/[μW/cm^2]
- Avg Radiant Efficiency (A431 cells; 25 μM, 15 minutes): 1.22E+07 [p/s/cm^2/sr]/[μW/cm^2] and 1.20E+07 [p/s/cm^2/sr]/[μW/cm^2] and 1.19E+07 [p/s/cm^2/sr]/[μW/cm^2]
- Average values (A431 cells; 25 μM, 30 minutes): 1.20E+07 [p/s/cm^2/sr]/[μW/cm^2]
- Avg Radiant Efficiency (A431 cells; 25 μM, 30 minutes): 1.20E+07 [p/s/cm^2/sr]/[μW/cm^2]
- uptake in live A431 cells (A431 cells; long incubation periods (30 min), high concentrations (25 uM)): No uptake
- radiance of wells incubated with the dye compared to that of the control (A431 cells; wells B1-C10, 5-25 μM, 5-30 minutes): no significant difference

SMILES: CC1(C)C2=CC=CN(CCCCCC(=O)O)C2=N/C1=C/C=C1\C[N+](C)(C)CC(/C=C/C2=Nc3c(ccc[n+]3CCCCCC(=O)O)C2(C)C)=C1Cl [dye VI]
- absorption in the NIR-II region [4]: absorbs in the NIR-II region
- fluorescence at the site of focal dry-ice treatment [1]: strong fluorescence signal
- signal from the viable cells [1]: no signal
